# Measurements published in patent US11707453B2, “Treatment of unipolar depressive disorder” (OXFORD UNIVERSITY INNOVATION LIMITED, priority 2017, dated 2023).
# Tests used:
# 5-HT2A receptor [1] = assay: Psilocin-evoked head-twitch response (HTR); type: in vivo, mice; conditions: ebselen pretreatment; psilocin 2 mg kg^-1 i.p.
# 5-HT2A receptor [2] = assay: DOI-evoked head-twitch (HTR) and ear scratch (ESR) behavioural responses; type: in vivo, mice; conditions: for DOI-evoked ESR / DOI-evoked HTR: vs DOI alone
# brain extracellular 5-HT = assay: Microdialysis, extracellular 5-HT in hippocampus; type: in vivo, mice
# Experimental: The microdialysis probe was connected to a perfusion pump (CMA/100, CMA Microdialysis Ltd.) and perfused (2 μl min^−1) continuously with artificial CSF (140 mM NaCl, 3 mM KCl, 1.2 mM Na2HPO4, 0.27 mM NaH2PO4, 1 mM MgCl2, 2.4 mM CaCl2 and 7.2 mM glucose). After 2 h perfusate samples were collected every 20 min and analysed immediately by HPLC with electrochemical detection (see below).
# Once 3 consecutive baseline samples were stable, mice received a single injection of ebselen (10 mg kg^−1 i.p.) or vehicle. Citalopram (5 mg kg^−1 i.p.) was administered 1 h later and dialysates were collected for a further 2 h. At the end of each experiment, brains were removed and probe placement was confirmed by histological examination.
# (§1) Both mcrodialysates (20 μl) and brain tissue supernatants (50 μl) were analysed by an HPLC system, comprising a silica-based, reversed phase column (3.0 μm ODS2, 4.6 mm×100 mm, Waters Ltd) coupled to an electrochemical detector (glass carbon working electrode versus Ag/AgCl reference; LC-4C, Bioanalytical systems). For microdialysates, analytes were separated at room temperature by an isocratic mobile phase comprising 12.5% (v/v) methanol, 0.13 M NaHPO4.H2O, 0.025 mM octane sulphonic acid, 0.85 mM EDTA and 2 mM NaCl at pH 3.5, and with the working electrode set at +0.7 V.
# 5-HT synthesis = 5-HT synthesis (5-HTP accumulation after NSD1015); type: in vivo, mouse
# Experimental: (§2) The level of 5-HT synthesis in frontal cortex and hippocampus was obtained by measuring the accumulation of 5-HTP following inhibition of aromatic amino acid decarboxylase. Mice (n=6 per group) were administered ebselen (0.5, 1 or 5 mg kg^−1 i.p.) or vehicle and 1 h later animals were injected with the aromatic amino acid decarboxylase inhibitor NSD1015 (100 mg kg^−1 i.p.). Mice were then culled by cervical dislocation 30 min following NSD1015 and brain tissue was removed and stored at −80° C. Separate experiments measured levels of 5-HT, 5-HIAA and tryptophan in cortex and hippocampus. Mice (n=6 per group) were administered ebselen (0.5, 1 or 5 mg kg^−1 i.p.) or vehicle and then culled by cervical dislocation 1 h post-drug. Brain tissue was dissected out and stored at −80° C. prior to neurochemical analysis.
# (§3) On the day of neurochemical analysis, tissue pieces (˜20 mg) of frozen frontal cortex and hippocampus were placed in Eppendorf tubes containing 500 μl perchloric acid (0.09 M) and homogenised using a polytron kinetic homogeniser (15000 rpm for 10 sec). Tissue homogenates were then centrifuged (1000 rpm for 10 min) and the supernatant was transferred in a new Eppendorf tube, protected from light, and kept on ice before analysis using HPLC with electrochemical detection (see below).
# as §1
# (§4) For measurement of 5-HT, 5-HIAA and tryptophan in brain tissue supernatants, analytes were separated at room temperature by an isocratic mobile phase comprising an isocratic mix of 15% (v/v) methanol, 2 mM 1-octanesulphonic acid, 0.12 M NaHPO4.H2O, 2 mM NaCl, and 0.1 mM EDTA at pH 3.7 with the working electrode set at +0.85V. For measurement of 5-HTP the mobile phase was adjusted to pH 3.4.
# [3] = Tissue levels of 5-HT, 5-HIAA and tryptophan; type: in vivo, mouse; conditions: 1 h post-drug
# Experimental: as §2, §3, §1, §4
# [4] = test system: 5-HT2A receptor binding sites; assay: Receptor autoradiography, [3H]-ketanserin binding sites in frontal cortex after treatment; type: in vivo, mouse
# Experimental: The effect of ebselen and lithium treatment on the abundance of cortical 5-HT2A receptor binding sites was measured using receptor autoradiography. Mice were randomly allocated to one of the following treatments (6 mice per group); i) acute ebselen (10 mg kg^−1 i.p.) or vehicle, ii) repeated ebselen (10 mg kg^−1 i.p., twice daily for 7 days; last injection morning of the 8th day) or vehicle, and iii) repeated lithium (7 days; 10 mmol kg^−1 i.p. on day 1, 3 mmol kg^−1 i.p. twice daily on days 2-7) or vehicle.
# Tissue sections (12 μm) were cryostat-cut at the level of the frontal cortex and stored in −80° C. On the day of the experiment, sections were incubated (at room temperature) in Tris-HCl buffer (0.17 M, pH 7.7) for 20 min, and then for 2 h with either 2 nM [^3H]-ketanserin (PerkinElmer) to determine total binding, or 2 nM [^3H]-ketanserin plus 10 μM methysergide to determine non-specific binding. Sections were then washed twice for 10 min with ice-cold 4° C. Tris-HCl buffer (0.17 M, pH 7.7), followed by double deionised water. Finally, slides were air-dried overnight before being exposed to autoradiographic films (BioMax MR, Kodak) for 12 weeks.
# Optical density measurements were obtained from the autoradiograms as described above. […] Specific binding was calculated by subtracting non-specific binding from total binding. […]
# [5] = clinical trials for ischemic stroke (Yamaguchi et al 1998); cited from earlier work
# [6] = rats; cited from earlier work
# 5-HT2A receptor [7] = assay: DOI-evoked IEG (c-fos, Arc, egr2 mRNA) expression, in situ hybridization; type: in vivo, mice
# Experimental: In separate molecular studies, central 5-HT2A receptor function was assessed by measuring DOI-induced mRNA expression of the IEG c-fos, as well as complementary IEGs Arc and egr2 in cortical regions (Gonzalez-Maeso et al., 2007; Jennings et al., 2008). The challenge dose of DOI (2 mg kg^−1 i.p.) was selected on the basis of preliminary dose response studies and evidence that DOI-evoked IEG expression was blocked by a selective 5-HT2A receptor antagonist (Jennings et al., 2008).
# Mice were randomly allocated to one of the following treatments (6 mice per group); i) acute ebselen (10 mg kg^−1 i.p.) or vehicle, ii) repeated lithium (3 days; 10 mmol kg^−1 i.p. on day 1, 3 mmol kg^−1 i.p. twice daily on days 2-3) or vehicle. Drug doses and pre-treatment times were selected as noted above; ebselen (1 h), lithium (18 h). Groups of mice were acclimatised to a procedure room for 4 h prior to each experiment. […]
# c-Fos, Arc and egr2 mRNA was measured on tissue sections using in situ hybridization (Jennings et al., 2008). […]
# Optical density measurements were obtained from the autoradiograms using computer-based image analysis (MCID software). Optical density readings were converted in nCi g^−1 of tissue by calibration with the use of [^14C] microscales, which were co-exposed with the slides. […]
# [8] = reported in WO 2012/107735; cited from earlier work
# [9] = acute ebselen 1, 5 or 10 mg kg^-1 i.p., DOI 2 mg kg^-1 i.p.
# [10] = repeated ebselen 10 mg kg^-1 i.p. for 7 days
# [11] = AR-A014418 10 or 20 mg kg^-1 i.p. pretreatment
# [12] = L-690,330 150 or 240 mg kg^-1 i.p. pretreatment
smiles,measurement,setting,value
"O=c1c2ccccc2[se]n1-c1ccccc1 [Ebselen, 2-phenyl-1,2-benzisoselenazol-3(2H)-one]",Psilocin-induced HTR,5-HT2A receptor [1],decreased
same,DOI-evoked ESR,5-HT2A receptor [2]; [9],dose-related decrease
same,DOI-evoked HTR,5-HT2A receptor [2]; [9],dose-related decrease
same,Inhibitory effect on DOI-evoked ESR,5-HT2A receptor [2]; [10],persisted
same,Inhibitory effect on DOI-evoked HTR,5-HT2A receptor [2]; [10],persisted
same,Effect of citalopram on extracellular 5-HT after ebselen pretreatment,"brain extracellular 5-HT; ebselen 10 mg kg^-1 i.p. 1 h before citalopram 5 mg kg^-1 i.p., greatest effect 20-40 min post citalopram",enhanced
same,"Extracellular 5-HT, ebselen alone","brain extracellular 5-HT; ebselen 10 mg kg^-1 i.p., vs vehicle-injected controls",no effect
same,5-HTP Cortex,5-HT synthesis; ebselen 0.5 mg kg^-1 i.p.,109.7 ± 10.6 % of vehicle
same,5-HTP Hippocampus,5-HT synthesis; ebselen 0.5 mg kg^-1 i.p.,87.9 ± 14.6 % of vehicle
same,5-HTP Cortex,5-HT synthesis; ebselen 1 mg kg^-1 i.p.,100.4 ± 3.7 % of vehicle
same,5-HTP Hippocampus,5-HT synthesis; ebselen 1 mg kg^-1 i.p.,95.6 ± 6.5 % of vehicle
same,5-HTP Cortex,5-HT synthesis; ebselen 5 mg kg^-1 i.p.,202.5 ± 15.0 % of vehicle
same,5-HTP Hippocampus,5-HT synthesis; ebselen 5 mg kg^-1 i.p.,152.6 ± 9.0 % of vehicle
same,5-HIAA Cortex,[3]; ebselen 0.5 mg kg^-1 i.p.,83.3 ± 14.4 % of vehicle
same,5-HIAA Hippocampus,[3]; ebselen 0.5 mg kg^-1 i.p.,129.8 ± 12.9 % of vehicle
same,5-HT Cortex,[3]; ebselen 0.5 mg kg^-1 i.p.,158.1 ± 14.7 % of vehicle
same,5-HT Hippocampus,[3]; ebselen 0.5 mg kg^-1 i.p.,234.4 ± 23.9 % of vehicle
same,Tryptophan Cortex,[3]; ebselen 0.5 mg kg^-1 i.p.,105.0 ± 10.3 % of vehicle
same,Tryptophan Hippocampus,[3]; ebselen 0.5 mg kg^-1 i.p.,210.2 ± 35.1 % of vehicle
same,5-HIAA Cortex,[3]; ebselen 1 mg kg^-1 i.p.,75.9 ± 6.3 % of vehicle
same,5-HIAA Hippocampus,[3]; ebselen 1 mg kg^-1 i.p.,141.0 ± 9.5 % of vehicle
same,5-HT Cortex,[3]; ebselen 1 mg kg^-1 i.p.,148.6 ± 11.2 % of vehicle
same,5-HT Hippocampus,[3]; ebselen 1 mg kg^-1 i.p.,225.9 ± 14.3 % of vehicle
same,Tryptophan Cortex,[3]; ebselen 1 mg kg^-1 i.p.,122.7 ± 20.6 % of vehicle
same,Tryptophan Hippocampus,[3]; ebselen 1 mg kg^-1 i.p.,128.5 ± 13.6 % of vehicle
same,5-HIAA Cortex,[3]; ebselen 5 mg kg^-1 i.p.,88.7 ± 3.8 % of vehicle
same,5-HIAA Hippocampus,[3]; ebselen 5 mg kg^-1 i.p.,139.2 ± 17.0 % of vehicle
same,5-HT Cortex,[3]; ebselen 5 mg kg^-1 i.p.,130.9 ± 4.8 % of vehicle
same,5-HT Hippocampus,[3]; ebselen 5 mg kg^-1 i.p.,189.4 ± 21.4 % of vehicle
same,Tryptophan Cortex,[3]; ebselen 5 mg kg^-1 i.p.,131.9 ± 14.5 % of vehicle
same,Tryptophan Hippocampus,[3]; ebselen 5 mg kg^-1 i.p.,135.4 ± 17.2 % of vehicle
same,[^3H]-Ketanserin binding sites,"[4]; acute ebselen 10 mg kg^-1 i.p. (2h), vehicle 4.33 ± 0.66",3.36 ± 0.38 nCi g^-1 of tissue
same,[^3H]-Ketanserin binding sites,"[4]; repeated ebselen 10 mg kg^-1 i.p. (7 days), vehicle 6.60 ± 0.27",6.12 ± 0.63 nCi g^-1 of tissue
same,Toxicity in humans at pharmaceutically effective dosages,[5],sufficiently non-toxic
same,LD50,[6],greater than 1000 mg/kg
same,"IEG responses to DOI (Arc, c-fos, egr-2 mRNA)","5-HT2A receptor [7]; ebselen 10 mg kg^-1 i.p., cingulate and somatosensory cortex (Arc, c-fos), caudate nucleus and endopiriform cortex (egr-2)",attenuated
same,Transfer across the blood/brain barrier,[8],capable of transferring across the blood/brain barrier
"COc1ccc(CNC(=O)Nc2ncc([N+](=O)[O-])s2)cc1 [AR-A014418, N-[(4-methoxyphenyl)methyl]-N′-(5-nitro-2-thiazolyl) urea, reference compound]",DOI-induced ESR,5-HT2A receptor [2]; [11],did not affect
same,DOI-induced HTR,5-HT2A receptor [2]; [11],did not affect
"CC(Oc1ccc(O)cc1)(P(=O)(O)O)P(=O)(O)O [L-690,330, [1-(4-hydroxyphenoxy)ethylidene]bisphosphonic acid, reference compound]",DOI-evoked ESR,5-HT2A receptor [2]; [12],decreased
same,DOI-evoked HTR,5-HT2A receptor [2]; [12],decreased
"COc1cc(CC(C)N)c(OC)cc1I (stereo not shown) [DOI, 1-(2,5-dimethoxy-4-iodophenyl)-propan-2-amine, reference compound]",Increase in IEG mRNA above vehicle-injected controls,"5-HT2A receptor [7]; DOI 2 mg kg^-1 i.p., selected brain regions",50-200%
"CN(C)CCCC1(c2ccc(F)cc2)OCc2cc(C#N)ccc21 (stereo not shown) [citalopram, reference compound]",Peak increase of 5-HT in hippocampal microdialysates above pre-drug values,"brain extracellular 5-HT; citalopram 5 mg kg^-1 i.p., 60 min post injection, awake mice",approximately 450%
